Experimental data as given in publication PMC6532426 (Nature chemistry, 2019).

Target: active human CypA protein (Homo sapiens, UniProt P62937)
Assay: Surface plasmon resonance
Assay type: binding
Details: assays of Fig. 5 (CypA SPR, IL-2)

Chain of active human CypA protein (P62937 whole entry): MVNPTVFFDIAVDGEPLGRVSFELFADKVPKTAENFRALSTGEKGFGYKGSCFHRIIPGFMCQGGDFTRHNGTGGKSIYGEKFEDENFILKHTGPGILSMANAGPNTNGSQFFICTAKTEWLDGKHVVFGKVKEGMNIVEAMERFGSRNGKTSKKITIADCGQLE

| Compound | immunosuppressive activity / CypA affinity in words | immunosuppressive activity / CypA affinity in words (listed as (–)-28) |
| --- | --- | --- |
| CC1(C)CCCC(C)(C2=C[C@@H]3COC(=O)[C@@H]3CC2)C1 (stereo partly drawn) [compound 28] | completely inactive | inactive |
| CC(=O)O[C@@H]1OC[C@H]2CC(=O)CC[C@H]21 [(-)-24] | completely inactive | – |
